From article PMC7559231, “Drug-induced cholestasis assay in primary hepatocytes” (MethodsX, 2020)
Where two headings read alike, the source gives them in different places.

Assays:
[1] = test system: sandwich-cultured human hepatocytes; settings: SCHH, ref [6],[7], cited from earlier work; for DICI 24 h Mean: 24 h exposure; for DICI 48 h Mean: 48 h exposure
[2] = parameters: method as in per compound in column References of Table 3 ([3], [24]-[44]); settings: mean total peak plasma concentration in humans; ref per compound in Table 3 ([3], [24]-[44]); cited from earlier work
[3] = test system: sandwich-cultured human hepatocytes; assay: Drug-induced cholestasis (DIC) assay: urea formation in sandwich-cultured human hepatocytes with and without the bile salt mixture; settings: lowest in vitro concentration with DICI < 0.78 / Cmax,total; for DICI-based SM obtained with the ‘original’ LOAEL method 24 h: 24 h incubation; for DICI-based SM obtained with the ‘original’ LOAEL method 48 h: 48 h incubation
Source text: Drug-induced cholestasis (DIC) is a major cause of attrition during drug development and post-marketing withdrawal. Early detection of DIC is crucial for avoiding financial losses and improving drug safety. Preclinical assays for DIC detection often rely on evaluation of the test compound towards individual cellular targets such as their inhibitory potential towards the bile salt export pump (BSEP) by using BSEP membrane vesicles. However, the underlying mechanisms of DIC development are more complex involving multiple other transporters and nuclear receptors. A more comprehensive in vitro model such as sandwich-cultured human hepatocytes (SCHH) are more suited due to the presence of metabolizing enzymes and transporters relevant to bile salt disposition. The assay described here relies on changes in the ability of SCHH to produce urea from ammonia in the absence and presence of a (patho-)physiologically relevant bile salt mixture. Ammonia is detoxified in the hepatocyte by the urea cycle to form non-toxic urea. Measuring changes in urea production allows for the quantitative evaluation of the hepatocyte's biochemical and functional integrity. The colorimetric quantitation of urea formation is based on the reaction between urea and diacetylmonoxime.
By determining the ratio of urea formation after incubation with test compound in absence and in presence of the bile salt mixture, the DIC index (DICI) value can be calculated. […] It was previously established that a compound with a SM below 30 can be considered to display increased risk for causing cholestasis in the clinic.
If longer incubations are required (e.g. 48 h), the medium is changed again after 24 h (day 6) with fresh medium containing the same initial concentrations of test compound and bile salts as 24 h before.
• Solution 1: culture medium with no compound and 0.2% DMSO. […] This solution should be filtered through a 0.2 µm filter and prewarmed for 30 min at 37°C. • Solution 4: culture medium with double concentrated test compound. […] This solution should be filtered through a 0.2 µm filter and prewarmed for 30 min at 37°C. • Solution 5: control medium with bile salts, prepared by mixing solution 1 and solution 2 in a 1:1 ratio. • Solution 6: culture medium with positive control without bile salts, prepared by mixing solution 1 and solution 3 in a 1:1 ratio. • Solution 7: culture medium with positive control with bile salts, prepared by mixing solution 2 and solution 3 in a 1:1 ratio. • Solution 8: culture medium with test compound without bile salts, prepared by mixing solution 1 and solution 4 in a 1:1 ratio. • Solution 9: culture medium with test compound with bile salts, prepared by mixing solution 2 and solution 4 in a 1:1 ratio.
• 1. On day 5, aspirate the medium and preincubate the cells with solution 1, solution 6 or solution 8 for 2 h. Note: this preincubation step is performed to enable the compounds to interact with the cellular machinery. • 2. After 2 h, aspirate the medium and immediately incubate the cells with solution 1, solution 5, solution 6, solution 7, solution 8 or solution 9 for 22 h.
The urea assay is performed on day 6 or day 7 for 24 h and 48 h incubations, respectively.
• Solutions for the color reagent. […] Note: perform this procedure on ice as this is an exothermic reaction. Wear appropriate protective gear. • ○ Solution B prepared by mixing the thiosemicarbazide solution and the diacetyl monoxime in a 1:1 ratio. • Incubation buffer: HBSS containing 10 mM HEPES, 2 mM glutamine, 10 mM ammonium chloride and 3 mM ornithine, filtered through a 0.2 µm filter and prewarmed at 37°C. • 96-well thermostable plate with aluminum cover slip.
• 1. Aspirate the culture medium. • 2. Wash the wells twice with 250 µL prewarmed incubation buffer. Aspirate the remaining buffer. • 3. Add 125 µL prewarmed incubation buffer to each well and keep the plate at 37°C for 1 h. • 4.

SMILES	DICI 24 h Mean ([1]; 50 µM test compound)	DICI 24 h Mean ([1]; 100 µM test compound)	DICI 24 h Mean ([1]; 200 µM test compound)	Cmax,total [2] [µM]	DICI-based SM obtained with the ‘original’ LOAEL method 24 h [3]	DICI 48 h Mean ([1]; 50 µM test compound)	DICI 48 h Mean ([1]; 100 µM test compound)	DICI-based SM obtained with the ‘original’ LOAEL method 48 h [3]	DICI 24 h Mean ([1]; 10 µM test compound)	DICI 48 h Mean ([1]; 10 µM test compound)	DICI 24 h Mean ([1]; 20 µM test compound)	DICI 48 h Mean ([1]; 20 µM test compound)	other results
CC[C@H]1OC(=O)[C@H](C)[C@@H](O[C@H]2C[C@@](C)(OC)[C@@H](O)[C@H](C)O2)[C@H](C)[C@@H](O[C@@H]2O[C@H](C)C[C@H](N(C)C)[C@H]2O)[C@](C)(O)C[C@@H](C)C(=O)[C@H](C)[C@@H](O)[C@]1(C)O [Erythromycin, erythromycin]	0.94	1.29	1.42	3.97	50.38								
COc1ccccc1Oc1c(NS(=O)(=O)c2ccc(C(C)(C)C)cc2)nc(-c2ncccn2)nc1OCCO [Bosentan, bosentan]	1.07	0.99	1.15	7.39	27.06	1.06	0.87	27.06					DICI 48 h Mean ([1]; 200 µM test compound): 1.02
Cc1ccc(C(=O)c2cc(O)c(O)c([N+](=O)[O-])c2)cc1 [Tolcapone, tolcapone]	0.91			47.6	1.05	0.79		1.05	1.05	0.89			DICI 24 h Mean ([1]; 5 µM test compound): 0.98; DICI 48 h Mean ([1]; 5 µM test compound): 1.01
O=c1[nH]c(=O)n([C@@H]2O[C@H](CO)[C@@H](O)[C@@H]2F)cc1I [Fialuridine, fialuridine]	0.79	1.12		0.64	468.75	1.19	0.89		0.88	0.92	0.94	0.79	DICI 24 h Mean ([1]; 30 µM test compound): 0.95; DICI 48 h Mean ([1]; 30 µM test compound): 1.26; DICI 24 h Mean ([1]; 300 µM test compound): 0.82; DICI 48 h Mean ([1]; 300 µM test compound): 0.96
Cc1c(C)c2c(c(C)c1O)CCC(C)(COc1ccc(CC3SC(=O)NC3=O)cc1)O2 (stereo not drawn) [Troglitazone, troglitazone]	1.02	0.74		6.39	15.65	1.00	0.24	15.65			0.98	1.09	DICI 24 h Mean ([1]; 75 µM test compound): 0.78; DICI 48 h Mean ([1]; 75 µM test compound): 0.79
